From publication PMC3827828, “Novel angiotensin I-converting enzyme inhibitory peptides derived from an edible mushroom, Pleurotus cystidiosus O.K. Miller identified by LC-MS/MS” (BMC Complementary and Alternative Medicine, 2013)
Entries after “also recorded” stand apart in the source; their conditions may differ. Like-named read-outs stand apart in the source and are kept apart here. One block for each molecule: values may come before it. Peptide text beside a SMILES is read from it.

Tests used:
[1] = biological target: T1, Angiotensin I-converting enzyme (ACE) (Homo sapiens, UniProt P12821); experiment: ACE inhibitory activity after simulated gastrointestinal digestion; type: biochemical; details: mean, n = 3; for inhibition at 100 µg/mL (stock): 0.1 mg/ml, pepsin 2.5 hrs, then pH 8.0, 0.025% chymotrypsin and 0.025% trypsin, another 2.5 hrs, read-out: ACE inhibitory activity after pepsin-pancreatin digestion; for inhibition at 100 µg/mL (stock) / ACE inhibitory activity after digestion by pepsin: 37°C; for ACE inhibitory activity without gastrointestinal digestion (control): peptide solution 0.1 mg/ml incubated in buffer solutions (HCl and potassium phosphate buffer); for ACE inhibitory activity after digestion by pepsin: peptide solution 0.1 mg/ml with 0.05% pepsin (0.1 M HCl, pH 2.0), 2.5 hrs
T1 construct: purchased Dojindo Laboratories ACE kit-WST
Protocol: (§1) In the current study, ACE inhibitory activity was determined using an ACE inhibitory assay kit (ACE kit-WST, Dojindo Laboratories, Kumamoto, Japan). The assay was carried out according to the protocol provided by the manufacturer. Absorbances of the reactions were measured using a Sunrise® ELISA microplate reader (Tecan, Grödig, Austria) at 450 nm. The ACE inhibitory activity of the samples was calculated using the formula given in the protocol. The concentration of the ACE inhibitor required to inhibit 50% of ACE activity under the above assay conditions was defined as the IC50.
(§2) The stability of the synthesised peptides against gastrointestinal proteases was assessed in vitro by the method of Wu and Ding. The peptide solution (0.1 mg/ml, 0.5 ml) was incubated with 0.5 ml of a 0.05% pepsin solution (0.1 M HCl at pH 2.0) for 2.5 hrs at 37°C. In the successive pepsin-pancreatin digestion test, the peptide solution was adjusted to pH 8.0 after pepsin digestion. Then, 0.5 ml of pancreatin solution [potassium phosphate buffer (0.1 M, pH 8.0) containing 0.025% (w/v) chymotrypsin and 0.025% (w/v) trypsin] was added to the solution. The mixture was incubated for another 2.5 hrs at 37°C. The control (without digestion) consisted of peptide solution incubated in buffer solutions (HCl and potassium phosphate buffer) and was carried out alongside the experiment. After enzymatic treatment, the pepsin solution and pepsin-pancreatin solution were boiled for 10 min to stop the digestion and then centrifuged at 10,000 rpm for 10 min. The supernatants were freeze-dried and used for the measurement of ACE inhibitory activity. The stability of the purified peptides against gastrointestinal enzymes was analysed by SEC.
Figure 3 Effect of simulated gastrointestinal digestion on the ACE inhibitory activity of peptides AHEPVK and GPSMR. Control: The peptide solutions (0.1 mg/ml) were incubated in buffer solutions (HCl and potassium phosphate buffer). P: The peptide solutions were incubated with 0.05% pepsin solution for 2.5 hrs at 37°C. P + T + C: The peptide solutions were successively digested with pepsin for 2.5 hrs. They were further incubated in pancreatin solution for another 2.5 hrs at 37°C. The ACE inhibitory activity are expressed as mean ± standard deviation (n = 3).

[2] = system: pepsin, trypsin and chymotrypsin; experiment: Stability against gastrointestinal enzymes observed by SEC; type: in vitro ADME; details: 0.1 mg/ml; pepsin pH 2.0 2.5 hrs, then trypsin + chymotrypsin pH 8.0 2.5 hrs, 37°C; Biosep SEC-S2000, UV 214 nm
Protocol: as §2
Figure 4 Stability of peptide AHEPVK against gastrointestinal enzymes observed by SEC chromatograms. Separation was performed on a Biosep SEC-S2000 column (300 × 7.8 mm). Mobile phase consisted of 45% acetonitrile containing 0.1% TFA eluted at a flow rate of 1.0 ml/min. […]

[3] = biological target: T1, Angiotensin I-converting enzyme (ACE); experiment: ACE inhibitory activity assay (ACE kit-WST); type: biochemical; details: synthesised peptide, absorbance 450 nm, triplicate, mean ± standard deviation
Protocol: as §1
The analysis of ACE inhibitory activity was carried out in triplicate and result was reported as mean ± standard deviation. Mean differences of ACE inhibitory activity in SEC fractions was analyzed using one-way ANOVA in Statgraphics Plus 3.0 at p < 0.05.

[4] = system: ACE; details: cited from earlier work
Protocol: Peptide LRIPVA from spinach inhibited 50% of the ACE at a concentration as low as 0.38 μM [29]. However, there were also studies reported on similar IC50 value with the current study. […] It was predicted to remain stable throughout the digestion process. […] Jimsheena and Gouda had shown the important role of stere ... || (+ 2 further places)

[5] = peptides from milk and bonita fish

T1 sequence (P12821 30-1306, species assumed): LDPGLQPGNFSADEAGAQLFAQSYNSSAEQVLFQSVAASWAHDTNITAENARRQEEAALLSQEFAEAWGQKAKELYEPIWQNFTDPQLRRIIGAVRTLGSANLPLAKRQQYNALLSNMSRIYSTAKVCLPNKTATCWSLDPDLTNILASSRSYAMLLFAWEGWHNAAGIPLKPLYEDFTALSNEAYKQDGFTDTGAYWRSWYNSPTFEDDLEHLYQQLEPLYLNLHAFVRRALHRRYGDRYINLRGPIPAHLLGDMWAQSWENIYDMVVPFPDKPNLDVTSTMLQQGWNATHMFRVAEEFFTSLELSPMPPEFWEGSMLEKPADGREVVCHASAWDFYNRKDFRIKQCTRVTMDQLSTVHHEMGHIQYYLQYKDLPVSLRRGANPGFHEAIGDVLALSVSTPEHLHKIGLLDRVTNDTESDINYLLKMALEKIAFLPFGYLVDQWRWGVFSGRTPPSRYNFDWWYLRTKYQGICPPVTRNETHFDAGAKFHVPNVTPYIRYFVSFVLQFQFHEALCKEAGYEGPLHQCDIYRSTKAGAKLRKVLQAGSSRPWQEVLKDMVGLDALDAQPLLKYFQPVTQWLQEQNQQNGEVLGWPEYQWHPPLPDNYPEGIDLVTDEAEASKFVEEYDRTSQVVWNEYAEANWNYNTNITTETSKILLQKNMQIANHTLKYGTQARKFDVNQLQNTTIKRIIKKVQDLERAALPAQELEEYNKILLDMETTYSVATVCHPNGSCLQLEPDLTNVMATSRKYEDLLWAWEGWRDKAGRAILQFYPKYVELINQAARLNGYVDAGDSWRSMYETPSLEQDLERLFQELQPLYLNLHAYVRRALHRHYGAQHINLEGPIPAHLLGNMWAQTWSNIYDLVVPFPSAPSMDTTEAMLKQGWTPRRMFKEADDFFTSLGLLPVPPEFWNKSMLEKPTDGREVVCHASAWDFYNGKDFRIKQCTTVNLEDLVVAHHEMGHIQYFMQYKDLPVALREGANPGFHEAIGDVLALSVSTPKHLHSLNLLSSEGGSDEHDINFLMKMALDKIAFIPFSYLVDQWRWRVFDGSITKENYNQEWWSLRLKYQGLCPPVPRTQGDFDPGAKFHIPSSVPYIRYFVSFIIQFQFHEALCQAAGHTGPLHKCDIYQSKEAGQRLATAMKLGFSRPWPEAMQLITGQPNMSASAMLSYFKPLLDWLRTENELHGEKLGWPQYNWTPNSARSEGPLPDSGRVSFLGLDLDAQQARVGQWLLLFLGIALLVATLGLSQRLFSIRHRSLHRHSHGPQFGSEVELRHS

inhibition at 100 µg/mL (stock) [1]: 95.9% | ACE inhibitory activity without gastrointestinal digestion (control) [1]: 80.27% | ACE inhibitory activity after digestion by pepsin [1]: 95.38% | IC50 [3]: 62.8 µM
Molecule: CC(C)[C@H](NC(=O)[C@@H]1CCCN1C(=O)[C@H](CCC(=O)O)NC(=O)[C@H](Cc1c[nH]cn1)NC(=O)[C@H](C)N)C(=O)N[C@@H](CCCCN)C(=O)O [AHEPVK] (H-AHEPVK-OH)
Stability of peptide against gastrointestinal enzymes (SEC chromatograms) [2]: stable throughout gastrointestinal digestion; also recorded: confirmed the stability of AHEPVK against digestive enzymes; also recorded: remained stable following gastrointestinal digestion

inhibition at 100 µg/mL (stock) [1]: 96% | ACE inhibitory activity without gastrointestinal digestion (control) [1]: 67.08% | ACE inhibitory activity after digestion by pepsin [1]: 92.22% | IC50 [3]: 278 µM
Molecule: CSCC[C@H](NC(=O)[C@H](CO)NC(=O)[C@@H]1CCCN1C(=O)CN)C(=O)N[C@@H](CCCNC(=N)N)C(=O)O [GPSMR] (H-GPSMR-OH)
Stability of peptide against gastrointestinal enzymes (SEC chromatograms) [2]: hydrolysed after digestion; also recorded: hydrolysed into smaller fragments

Molecule: C[C@H](CS)C(=O)N1CCC[C@H]1C(=O)O [captopril]
Inhibition pattern against ACE [4]: competitive manner

Molecule: GPCSR [peptide from sweet potato]
IC50 ([4]; peptides from sweet potato): 276000 nM

Molecule: GTEKC [peptide from sweet potato]
IC50 ([4]; peptides from sweet potato): 61700 nM

Molecule: LKPNM [pentapeptide from bonita fish]
IC50 [4, 5]: 2400 nM

Molecule: LRIPVA [peptide from spinach]
IC50 ([4]; peptide from spinach): 380 nM

Molecule: PYVRYL [hexapeptide from milk]
IC50 [4, 5]: 2400 nM
